Measured values from PMC10454409, “Hybrids of Sterically Hindered Phenols and Diaryl Ureas: Synthesis, Switch from Antioxidant Activity to ROS Generation and Induction of Apoptosis” (International Journal of Molecular Sciences, 2023).
Where two headings read alike, the source gives them in different places.

Assays:
[1] = tested on: SH-SY5Y cells (neuroblastoma); assay: MTT cytotoxicity test, SH-SY5Y; assay type: cell-based; settings: for IC50: Homo sapiens, SH-SY5Y, MTT test, 24 h incubation per text, 48 h per method
Source text: (§1) For the experiments, we used tumor cell cultures M-HeLa clone 11 (epithelioid carcinoma of the cervix, subline HeLa., clone M-HeLa), HuTu 80 (human duodenal adenocarcinoma) and MCF7 (human breast adenocarcinoma (pleural fluid)) from the collection of the Institute of Cytology, Russian Academy of Sciences (St. Petersburg); human liver cells (Chang liver) from the collection of the Research Institute of Virology at the Russian Academy of Medical Sciences (Moscow); and SH-SY5Y (neuroblastoma)from the Laboratory of Tumor Cell Genetics at the Scientific Research Institute of Carcinogenesis N.N. Blokhin National Medical Research Center of Oncology.
(§2) The cytotoxic effect on cells was determined using the colorimetric method of cell proliferation—the MTT test. NADP-H-dependent cellular oxidoreductase enzymes can, under certain conditions, reflect the number of viable cells. These enzymes are able to reduce the tetrazolium dye (MTT)-3-(4,5-dimethylthiazol-2-yl)-2,5-diphenyl-tetrazolium bromide to insoluble blue-violet formazan, which crystallizes inside the cell. The amount of formazan formed is proportional to the number of cells with active metabolism.
(§3) Cells were seeded on a 96-well Nunc plate at a concentration of 5 × 10^3 cells per well in a volume of 100 μL of medium and cultured in a CO2 incubator at 37 °C until a monolayer was formed. […] After 48 h, the nutrient medium was removed from the plates and 100 µL of the nutrient medium without serum with MTT at a concentration of 0.5 mg/mL was added and incubated for 4 h at 37 °C. Formazan crystals were […] 100 µL of DMSO in each well. Optical density was recorded at 540 nm on an in vitro logic microplate reader (Russia). The experiments for all compounds were repeated in triplicate.
(§4) IC50 values were estimated using the Quest Graph IC50 Calculator (AAT Bioquest, Inc., Sunnyvale, CA, USA) (Version 2022) (accessed on 25 June 2022).

[2] = tested on: Chang liver cells (human liver cells, normal cell line); assay: MTT cytotoxicity test, Chang liver normal cells; assay type: cell-based; settings: 48 h incubation
Source text: as §1, §2, §3, §4

[3] = tested on: HuTu 80 cells (human duodenal adenocarcinoma); assay: MTT cytotoxicity test, HuTu 80; assay type: cell-based; settings: Homo sapiens
Source text: as §1, §2, §3, §4

[4] = tested on: M-HeLa cells (human cervix epithelioid carcinoma); assay: MTT cytotoxicity test, M-HeLa; assay type: cell-based; settings: for IC50: Homo sapiens, M-HeLa, MTT test, 24 h incubation per text, 48 h per method
Source text: as §1, §2, §3, §4

[5] = tested on: MCF-7 cells (human breast adenocarcinoma); assay: MTT cytotoxicity test, MCF-7; assay type: cell-based; settings: for IC50: 24 h incubation per text, 48 h per method; for SI, selectivity index relative to Chang liver, MCF-7: MCF-7 vs Chang liver
Description: as §2
Formazan crystals were added to 100 µL of DMSO in each well. Optical density was recorded at 540 nm on an in vitro logic microplate reader (Russia). The experiments for all compounds were repeated in triplicate.

[6] = tested on: isolated rat liver mitochondria; assay: Membrane potential of isolated mitochondria (Safranin A); assay type: biochemical
Description: The membrane potential of rat […] mitochondria was measured with a Victor 3 plate analyzer (Perkin Elmer, Hamburg, Germany) using the potential-dependent indicator Safranin A [57]. The mitochondrial preparation was diluted in a buffer containing mannitol (225 mM) (Dia-M, Moscow, Russia), sucrose (75 mM) (Sigma Aldrich, Saint Louis, MO, USA), HEPES (10 mM) (Gibco, Scotland, UK), EGTA (20 µM) (Dia-M, Moscow, Russia) and KH2PO4 (1 mM) at pH = 7.4 at a ratio of 0.5 mg of protein to 1 mL of medium. Safranin A (5 µM) was added to the suspension immediately before the start of the measurement. The organelles were then energized by potassium succinate (5 mM) in the presence of rotenone (1 µM). Mitochondrial pore opening was induced by the addition of CaCl2 (25 µM).
Figure 8 Effect of the synthesized compounds on the membrane potential of rat liver mitochondria. (a) Kinetic lines of transmembrane potential changes at λex = 458 nm and λem = 590 nm. The concentration of the test substances was 100 µM. (b) Calculated parameters of % depolarization relative to control samples. Statistical significance was assessed using one-way ANOVA and Dunnett’s multiple comparison tests, where **** p < 0.0001 vs. control. (c) Concentration dependence of the effects of 11b and 17b on mitochondrial membrane potential. The concentration of the test substances was from 20 to 200 µM. Concentration of ions; Ca^2+—25 µM. Mitochondria were energized by potassium succinate and rotenone. Data are presented as mean±error of the mean (n = 3).

[7] = tested on: SH-SY5Y neuroblastoma cells; assay: Glycolysis stress test (Seahorse XF96e, ECAR); assay type: cell-based; settings: compound 100 µM; for Glycolysis: rate of extracellular acidification after saturating glucose: glucose 10 mM; for Glycolytic capacity: oligomycin 1 µM
Description: We studied the ability of compounds to inhibit aerobic glycolysis using the Agilent Seahorse XF96e Analyzer (Seahorse Bioscience, North Billerica, MA, USA) assay of cellular metabolism on the level of proton production in samples examined on the SH-SY5Y neuroblastoma cell line using glycolysis stress tests. The extracellular acidification rate of the medium was measured in real time, which allowed us to assess the intensity of glycolysis in the cells by recording the main parameters of glycolytic function: basal glycolysis, glycolytic capacity and glycolytic reserve. Glycolytic capacity describes the maximum amount of glycolysis/glucose breakdown the cells can perform acutely, whereas glycolytic reserve is defined as the difference between the basal and maximal glycolytic capacity.
The ability of synthesized compounds to modulate […] glycolysis was studied using the Agilent Seahorse XF96e Analyzer (Seahorse Bioscience, Billerica, MA, USA) on the neuroblastoma SH-SY5Y cell line (40,000 cells per well) as described earlier.
Glycolysis was measured by subtracting the maximum rate of extracellular acidification of the medium before glucose injection from the maximum rate before oligomycin injection. Glycolytic capacity was measured by subtracting the maximum velocity value before glucose injection from the maximum velocity value after oligomycin injection. Glycolytic reserve was defined as the difference between glycolytic capacity and glycolysis.
Figure 6 Effect of synthesized compounds on the glycolytic profile of (a–c) SH-SY5Y tumor cells and (d) calculated parameters of glycolytic function. […] The concentration of compounds was 100 µM, glucose—10 mM, oligomycin—1 µM и 2-fluoro-2-deoxy-D-glucose—25 mM. Data are presented as mean±error of the mean (n = 3). Statistical significance was assessed using one-way ANOVA and Dunnett’s multiple comparison tests, where **** p < 0.0001, *** p < 0.001, ** p < 0.01 and * p < 0.05 vs. control.

HuTu 80 cells = assay: Intracellular ROS level, CellROX Deep Red flow cytometry; assay type: cell-based, human; settings: 48 h incubation, maximum concentration (IC50)
[8] = HuTu80, read-out: IC50, HuTu 80
[9] = HuTu80, MTT test, 24 h incubation per text, 48 h per method, read-out: IC50, HuTu 80

Compound | IC50 [1] | IC50 [2] | IC50 [3, 8] | IC50 [4] | IC50 ([5]; Homo sapiens, MCF7, MTT test) | SI, selectivity index relative to Chang liver, SH-SY5Y ([1]; SH-SY5Y vs Chang liver) | IC50 [3, 9] | SI, selectivity index relative to Chang liver, MCF-7 [5] | SI, selectivity index relative to Chang liver, M-HeLa ([4]; M-HeLa vs Chang liver) | Depolarization of mitochondrial membrane ([6]; isolated mitochondria, compound 100 μM) | Depolarization relative to control (class in Figure 8b) ([6]; isolated rat liver mitochondria, compound 100 µM) | Glycolytic reserve [7] | Glycolysis: rate of extracellular acidification after saturating glucose [7] | Glycolytic capacity [7] | Intracellular ROS level (HuTu 80 cells) | IC50 ([5]; MTT test)
COP(=O)(OC)C(c1cc(C(C)(C)C)c(O)c(C(C)(C)C)c1)c1ccc(N)nc1N (centres unmarked) [3a] | > 100 µM | > 100 µM | > 100 µM | 16.1 ± 1.3 µM | 31 ± 2.6 µM | – | – | – | – | – | – | – | – | – | – | –
CCOP(=O)(OCC)C(c1cc(C(C)(C)C)c(O)c(C(C)(C)C)c1)c1ccc(N)nc1N (centres unmarked) [3b] | 77 ± 1.9 µM | > 100 µM | 86.6 ± 6.8 µM | 17.1 ± 1.3 µM | 34.2 ± 3 µM | – | – | – | – | – | – | – | – | – | – | –
CC(C)OP(=O)(OC(C)C)C(c1cc(C(C)(C)C)c(O)c(C(C)(C)C)c1)c1ccc(N)nc1N (centres unmarked) [3c] | 30.4 ± 0.7 µM | 100 ± 2.7 µM | – | 38 ± 2.8 µM | 21.8 ± 1.7 µM | ~3 | > 100 µM | ~5 | – | – | – | – | – | – | – | –
CC(C)(C)c1cc(C(c2ccc(N)nc2N)P(=O)(Oc2ccccc2)Oc2ccccc2)cc(C(C)(C)C)c1O (centres unmarked) [3d] | 18.8 ± 0.2 µM | 52.3 ± 3.5 µM | 63.2 ± 5.6 µM | 7.4 ± 0.7 µM | 16.4 ± 1.7 µM | – | – | ~3 | ~7 | – | – | – | – | – | – | –
CCOP(=O)(OCC)C(c1cc(C(C)(C)C)c(O)c(C(C)(C)C)c1)c1ccc(NC(=O)Nc2ccccc2)nc1NC(=O)Nc1ccccc1 (centres unmarked) [5b] | 17.9 ± 1.9 µM | 31.4 ± 2.4 µM | 20 ± 1.7 µM | 62.5 ± 5.2 µM | 36.3 ± 2.8 µM | – | – | – | – | – | – | – | – | – | – | –
CCOP(=O)(OCC)C(c1cc(C(C)(C)C)c(O)c(C(C)(C)C)c1)c1ccc(NC(=O)Nc2cccc(C)c2)nc1NC(=O)Nc1cccc(C)c1 (centres unmarked) [8b] | 41 ± 0.3 µM | 13 ± 1.2 µM | < 15 µM | 62 ± 2.2 µM | 35.4 ± 2.8 µM | – | 8 ± 0.6 µM | – | – | – | – | – | – | – | – | –
Cc1ccc(NC(=O)Nc2ccc(C(c3cc(C(C)(C)C)c(O)c(C(C)(C)C)c3)P(=O)(Oc3ccccc3)Oc3ccccc3)c(NC(=O)Nc3ccc(C)cc3)n2)cc1 (centres unmarked) [9d] | > 100 µM | > 100 µM | 50 ± 4 µM | 78.9 ± 6.2 µM | 76.6 ± 6.2 µM | – | – | – | – | – | – | – | – | – | – | –
CCOP(=O)(OCC)C(c1cc(C(C)(C)C)c(O)c(C(C)(C)C)c1)c1ccc(NC(=O)Nc2ccc(OC)cc2)nc1NC(=O)Nc1ccc(OC)cc1 (centres unmarked) [10b] | > 100 µM | 81.2 ± 6.4 µM | 45 ± 3.6 µM | > 100 µM | 82.1 ± 6.5 µM | – | – | – | – | – | – | – | – | – | – | –
CCOP(=O)(OCC)C(c1cc(C(C)(C)C)c(O)c(C(C)(C)C)c1)c1ccc(NC(=O)Nc2ccc(Cl)cc2)nc1NC(=O)Nc1ccc(Cl)cc1 (centres unmarked) [11b] | 46.4 ± 0.92 µM | 99.4 ± 7.8 µM | 25.7 µM | 70 ± 5.5 µM | 63.1 ± 4.9 µM | – | – | – | – | 50% | High Depolarization | ability to decrease glycolytic reserves | decrease in the rate of extracellular acidification | decrease in glycolytic capacity | 670.7 ± 7.2% | –
COP(=O)(OC)C(c1cc(C(C)(C)C)c(O)c(C(C)(C)C)c1)c1ccc(NC(=O)Nc2cccc(C)c2)cc1NC(=O)Nc1cccc(C)c1 (centres unmarked) [13a] | > 100 µM | 92 ± 7.2 µM | 75.1 ± 6.1 µM | 75 ± 6 µM | 77.4 ± 6.3 µM | – | – | – | – | – | – | – | – | – | – | –
CCOP(=O)(OCC)C(c1cc(C(C)(C)C)c(O)c(C(C)(C)C)c1)c1ccc(NC(=O)Nc2cccc(C)c2)cc1NC(=O)Nc1cccc(C)c1 (centres unmarked) [13b] | 86.3 ± 4 µM | 68.2 ± 5.4 µM | 40.1 ± 3.1 µM | 96.3 ± 7.5 µM | 57.7 ± 4.6 µM | – | – | – | – | – | – | – | – | – | – | –
CCOP(=O)(OCC)C(c1cc(C(C)(C)C)c(O)c(C(C)(C)C)c1)c1ccc(NC(=O)Nc2ccc(C)cc2)cc1NC(=O)Nc1ccc(C)cc1 (centres unmarked) [14b] | 27 ± 1.1 µM | 21 ± 1.8 µM | 15.7 ± 1.3 µM | 14.1 ± 1.2 µM | < 15 µM | – | – | – | – | – | – | – | decrease in the rate of extracellular acidification | decrease in glycolytic capacity | – | 13.7 ± 1.2 µM
CCOP(=O)(OCC)C(c1cc(C(C)(C)C)c(O)c(C(C)(C)C)c1)c1ccc(NC(=O)Nc2ccc(OC)cc2)cc1NC(=O)Nc1ccc(OC)cc1 (centres unmarked) [15b] | > 100 µM | 96 ± 7.6 µM | 58.7 ± 4.6 µM | > 100 µM | 96.3 ± 7.6 µM | – | – | – | – | – | – | – | – | – | – | –
CCOP(=O)(OCC)C(c1cc(C(C)(C)C)c(O)c(C(C)(C)C)c1)c1ccc(NC(=O)Nc2ccc(Cl)cc2)cc1NC(=O)Nc1ccc(Cl)cc1 (centres unmarked) [16b] | > 100 µM | > 100 µM | 61 ± 4.8 µM | 100 ± 8.6 µM | > 100 µM | – | – | – | – | – | – | – | – | – | – | –
COP(=O)(OC)C(c1cc(C(C)(C)C)c(O)c(C(C)(C)C)c1)c1ccc(NC(=O)Nc2ccc([N+](=O)[O-])cc2)cc1NC(=O)Nc1ccc([N+](=O)[O-])cc1 (centres unmarked) [17a] | > 100 µM | 86 ± 6.6 µM | 41 ± 3.1 µM | 60 ± 4.7 µM | 73.6 ± 5.8 µM | – | – | – | – | – | – | – | – | – | – | –
CNC(=O)c1cc(Oc2ccc(NC(=O)Nc3ccc(Cl)c(C(F)(F)F)c3)cc2)ccn1 [SF, sorafenib, reference compound] | – | 21.7 ± 1.7 µM | – | 25 ± 1.9 µM | – | – | 6.2 ± 0.5 µM | – | – | – | – | – | – | – | – | –
